According to ChEMBL document CHEMBL3045841, “Novel diamide insecticides: sulfoximines, sulfonimidamides and other new sulfonimidoyl derivatives” (Bioorg Med Chem Lett, 2012):
In brackets after ≈: the same amount, converted by molar mass. Activity calls are given as the source filed them. The calls are words filed in the database; no cut-off is given here.

Columns and labels:
Spodoptera littoralis [1] = assay: Insecticidal activity against Spodoptera littoralis in maize assessed as control of pests measured after 12 to 22 days of seed application; assay type: functional, organism-based
Myzus persicae = assay: Insecticidal activity against Myzus persicae (green peach aphid) assessed as mortality by greenhouse assay; assay type: functional
Liriomyza trifolii = assay: Insecticidal activity against Liriomyza trifolii in kidney beans assessed as control of pests measured after 12 to 22 days of seed application; assay type: functional, organism-based
Spodoptera frugiperda = assay: Insecticidal activity against Spodoptera frugiperda (fall armyworm) in maize assessed as control of pests measured after 12 to 22 days of seed application; assay type: functional, organism-based
Phyllotreta striolata = assay: Insecticidal activity against Phyllotreta striolata in radish assessed as control of pests measured after 12 to 22 days of seed application; assay type: functional, organism-based
[2] = Lipophilicity, log P of the compound; assay type: physicochemical; conditions: octanol/water
Spodoptera littoralis [3] = assay: Insecticidal activity against Spodoptera littoralis assessed as mortality by greenhouse assay; assay type: functional
Agrotis ipsilon = assay: Insecticidal activity against Agrotis ipsilon in maize assessed as control of pests measured after 12 to 22 days of seed application; assay type: functional, organism-based
[4] = Aqueous solubility of the compound at pH 7; assay type: physicochemical; conditions: buffer
Plutella xylostella = assay: Insecticidal activity against Plutella xylostella (diamondback moth) assessed as mortality by greenhouse assay; assay type: functional

Row | SMILES | Activity (Spodoptera littoralis [1]) | EC80 (Myzus persicae) | Activity (Liriomyza trifolii) | Activity (Spodoptera frugiperda) | Activity (Phyllotreta striolata) | logP [2] | EC80 (Spodoptera littoralis [3]) | Activity (Agrotis ipsilon) | solubility [4] | EC80 (Plutella xylostella)
1 | Cc1cc(Cl)cc(C(=O)NC(C)(C)CS(C)(=N)=O)c1NC(=O)c1cc(C(F)(F)F)nn1-c1ncccc1Cl (centres undefined) | Active | 50 µg/mL (≈ 84.5 µM) | Active | Active | Active | 2.4 | 0.8 µg/mL (≈ 1.35 µM) | Active | 196 ppm | 0.8 µg/mL (≈ 1.35 µM)
2 | CNS(=N)(=O)CC(C)NC(=O)c1cc(Cl)cc(C)c1NC(=O)c1cc(Br)nn1-c1ncccc1Cl (centres undefined) | – | 200 µg/mL (≈ 331 µM) | – | – | – | 2 | 12.5 µg/mL (≈ 20.7 µM) | – | 95 ppm | 3.1 µg/mL (≈ 5.14 µM)
3 | CNC(=O)c1cc(Cl)cc(C)c1NC(=O)c1cc(Br)nn1-c1ncccc1Cl [CHLORANTRANILIPROLE] | – | 50 µg/mL (≈ 103 µM) | – | – | – | 2.8 | 0.8 µg/mL (≈ 1.66 µM) | – | 1 ppm | 0.8 µg/mL (≈ 1.66 µM)
4 | Cc1cc(C#N)cc(C(=O)NC(C)(C)CS(C)(=N)=O)c1NC(=O)c1cc(Br)nn1-c1ncccc1Cl (centres undefined) | – | 12.5 µg/mL (≈ 21.1 µM) | – | – | – | 1.1 | 0.8 µg/mL (≈ 1.35 µM) | – | 42 ppm | 0.8 µg/mL (≈ 1.35 µM)
5 | Cc1cc(C#N)cc(C(=O)NC(C)(C)CS(C)(=O)=N[N+](=O)[O-])c1NC(=O)c1cc(Br)nn1-c1ncccc1Cl (centres undefined) | – | 200 µg/mL (≈ 314 µM) | – | – | – | 1.9 | 12.5 µg/mL (≈ 19.6 µM) | – | 29 ppm | 0.8 µg/mL (≈ 1.25 µM)
6 | CN=S(=O)(CC(C)NC(=O)c1cc(C#N)cc(C)c1NC(=O)c1cc(Br)nn1-c1ncccc1Cl)NOC (centres undefined) | – | > 200 µg/mL | – | – | – | 1.8 | 50 µg/mL (≈ 80.1 µM) | – | 17 ppm | 3.1 µg/mL (≈ 4.97 µM)
7 | CN=S(=O)(CC(C)NC(=O)c1cc(C#N)cc(C)c1NC(=O)c1cc(Br)nn1-c1ncccc1Cl)NN(C)C (centres undefined) | – | 12.5 µg/mL (≈ 19.6 µM) | – | – | – | 2.1 | 50 µg/mL (≈ 78.5 µM) | – | 48 ppm | 12.5 µg/mL (≈ 19.6 µM)
8 | Cc1cc(C#N)cc(C(=O)NC(C)(C)CS(C)(=N)=O)c1NC(=O)c1cc(OCC(F)(F)F)nn1-c1ncccc1Cl (centres undefined) | – | 3.1 µg/mL (≈ 5.07 µM) | – | – | – | 1.6 | 0.8 µg/mL (≈ 1.31 µM) | – | 361 ppm | 0.2 µg/mL (≈ 0.327 µM)
9 | CNS(=N)(=O)CC(C)NC(=O)c1cc(C#N)cc(C)c1NC(=O)c1cc(Br)nn1-c1ncccc1Cl (centres undefined) | – | 200 µg/mL (≈ 337 µM) | – | – | – | 1.1 | 50 µg/mL (≈ 84.2 µM) | – | 96 ppm | 12.5 µg/mL (≈ 21 µM)
10 | CNC(=O)c1cc(C#N)cc(C)c1NC(=O)c1cc(Br)nn1-c1ncccc1Cl [CYANTRANILIPROLE] | – | 12.5 µg/mL (≈ 26.4 µM) | – | – | – | 1.9 | 3.1 µg/mL (≈ 6.54 µM) | – | 14 ppm | 0.8 µg/mL (≈ 1.69 µM)
11 | Cc1cc(C(F)(C(F)(F)F)C(F)(F)F)ccc1NC(=O)c1cccc(I)c1C(=O)NC(C)(C)CS(C)(=O)=O [FLUBENDIAMIDE] | – | > 200 µg/mL | – | – | – | – | 3.1 µg/mL (≈ 4.54 µM) | – | 0.3 ppm | 3.1 µg/mL (≈ 4.54 µM)
12 | Cc1cc(Cl)cc(C(=O)NC(C)(C)CS(C)(=O)=NC#N)c1NC(=O)c1cc(C(F)(F)F)nn1-c1ncccc1Cl (centres undefined) | – | 200 µg/mL (≈ 324 µM) | – | – | – | 2.9 | 0.8 µg/mL (≈ 1.3 µM) | – | 14 ppm | 0.8 µg/mL (≈ 1.3 µM)
13 | Cc1cc(Cl)cc(C(=O)NC(C)(C)CS(C)(=N)=O)c1NC(=O)c1cc(OCC(F)(F)F)nn1-c1ncccc1Cl (centres undefined) | Active | 12.5 µg/mL (≈ 20.1 µM) | Active | Active | Active | 2.4 | 0.8 µg/mL (≈ 1.29 µM) | Active | 295 ppm | 0.2 µg/mL (≈ 0.322 µM)
14 | Cc1cc(C#N)cc(C(=O)NC(C)(C)CS(C)(=O)=NC#N)c1NC(=O)c1cc(Br)nn1-c1ncccc1Cl (centres undefined) | – | 200 µg/mL (≈ 324 µM) | – | – | – | 1.7 | 50 µg/mL (≈ 80.9 µM) | – | 59 ppm | 0.8 µg/mL (≈ 1.29 µM)
